Results taken from BigSolDB 2.1.

Nc1ncnc2c1ncn2[C@@H]1O[C@H](COP(=O)(O)O)[C@@H](O)[C@H]1O
solubility (mole fraction)
Details	in acetic acid	in ethanol	in methanol	in water
288.15 K	7.85e-05	5.3e-06	8.59e-06	–
288.2 K	–	–	–	0.000257
294.15 K	0.000122	5.61e-06	9.35e-06	–
294.2 K	–	–	–	0.000336
300.15 K	0.000186	6.75e-06	1.04e-05	–
300.2 K	–	–	–	0.000412
306.15 K	0.000276	7.73e-06	1.15e-05	–
306.2 K	–	–	–	0.000526
312.15 K	0.000395	9.24e-06	1.3e-05	–
312.2 K	–	–	–	0.000636
318.15 K	0.000564	1.06e-05	1.41e-05	–
318.2 K	–	–	–	0.000768
324.15 K	0.00075	1.24e-05	1.65e-05	–
324.2 K	–	–	–	0.000934
330.15 K	0.000967	1.54e-05	1.79e-05	–
